Key:
[1] = test system: adenosine-sensitive receptors of erythrocytes; experiment: Chemiluminescence study of bonding to erythrocytes and competition with adenosine; format: binding, mice of line BALB/c; settings: 37° C. vs 4° C.; 10^−7 to 10^−5 M
Method: The interaction of compounds 2, 15, 21, 37 according to the invention with adenosine-sensitive receptors of erythrocytes of female mice of line BALB/c of an age of 8-12 months was investigated.
The dependence of the chemiluminescence intensity of the compounds according to the invention in an alkaline solution of 0.1N NaOH was determined in the presence of hydrogen peroxide being an initiator of chemiluminescence. The chemiluminescence was studied using the <<LKB>> chemiluminometer.
The erythrocytes of peripheral blood of the mice at first were washed three times by a normal physiological solution with centrifuging and then diluted in the Henks solution without glucose by 10 volumes of distilled water immediately used in the experiment.
At the first stage of the experiments the washed erythrocytes were incubated at a temperature of 37° C. or at 4° C. with solutions of the compounds according to the invention at a concentration of 10^−7 to 10^−5 M for 5-30 minutes, then washed by a normal physiological solution with repeated centrifuging in the cold. The obtained suspension of erythrocytes with the bound compounds according to the invention was placed in 0.1N solution of NaOH with addition of hydrogen peroxide at a final concentration of 10^−7 M. The chemiluminescence intensity was measured. A suspension of erythrocytes without compounds according to the invention was used as a control medium.
At the second stage of the experiments the washed erythrocytes were incubated at a temperature of 37° C. with solutions of the compounds according to the invention at a concentration of 10^−11 to 10^−8M during
5-30 minutes, then washed twice with a normal physiological solution by centrifuging in the cold, the obtained suspension was mixed with an adenosine solution at a concentration of 10^−6 to 10^−4 and incubated for 15 minutes, then washed twice with a normal physiological solution with centrifuging in the cold. The obtained suspension of erythrocytes with the compounds according to the invention was placed in 0.1N solution of NaOH with addition of hydrogen peroxide in the final concentration of 10^−7 M. The chemiluminescence intensity was measured.

[2] = test system: plasma hemostasis; experiment: Prothrombin time after intravenous administration; format: in vivo, rabbit
Method: (§1) The investigations were performed on 72 rabbits of the “Chinchilla” breed with a mass of 2.5±0.3 kg, who were administered which solutions of compounds 2, 15, 21, 37 in doses of 15, 30 and 60 mg/kg intravenously. The experiments included the thrombin-test (series No. 7300) and the coagulability-test (series No. 5000) purchased from the scientific-and-production association (SPA) “Renam”, thromboplastin (series No. 240600) and calcium chloride purchased from the SPA “MedioLab”
(§2) The static parameters of the blood and plasma coagulation (partial activated thromboplastin time, thrombin time, maximum coagulation activity (test for auto coagulation) were determined using the Behnk Electronic coagulometer (Germany). The operating principle of this instrument is based on the fact that the formed blood clot breaks the contacts of the pulse counter in the flask-pin circuit, said pin permanently oscillating in a vertical plane. The moment of formation of the clot is registered by stopping the stop watch hand.
(§3) The measurements were effected at a constant temperature of 37° C. maintained by a temperature control unit.
The method of its determination is based on estimation of the coagulation of citrate or oxalic blood plasma, when it is mixed with thromboplastin and a calcium chloride solution. Since under these conditions the time of formation of the clot depends on the content of II, VII, IX and X factors in the investigated plasma sample, now the test is called “thromboplastin time by Quick” or “activity thromboplastin complex”.
Compounds 2, 15, 21, 37 according to the invention at a concentration of 15, 30 and 60 mg/kg were administered to the above experimental animals intravenously and their blood was taken off after 15, 30, 60 and 120 minutes after the administration.
Citrate blood containing 1 part of citrate per 9 parts of native blood was centrifuged at 3000 rev/min for 10 minutes to obtain plasma deprived of thrombocytes.
Added into a test tube in a water bath were 0.1 ml of plasma and 0.1 ml of a thromboplastin solution. After 60 seconds, 0.1 ml of 0.277% solution of calcium chloride was added and the time of reaction T1 in seconds was registered.

[3] = test system: plasma hemostasis; experiment: Autocoagulation test (coagulating activity A) after intravenous administration; format: in vivo, rabbit
Method: as §1, §2, §3
Compounds 2, 15, 21, 37 according to the invention at a concentration of 15, 30 and 60 mg/kg were intravenously administered to the above experimental animals and their blood samples were taken off 15, 30, 60 and 120 minutes after the administration.
Added to 0.2 ml of plasma obtained by centrifuging citrate blood at 1500 rev/min within 10 minutes was a glycosilate-calcium mixture (2.0 ml 0.222% CaCl2+0.1 ml of investigated citrate blood) 4, 6, 8, 10 minutes after the preparation of this mixture and the time of coagulation in the sample was determined.
The obtained results in seconds were translated in factors of coagulating activity A in percent, which specify the state of both the coagulating and anticoagulating parts of the blood coagulating system.

[4] = test system: thymus; experiment: Morphine abstinence model: thymus condition; format: in vivo, rats; settings: morphinized rats then compound
Method: The effect of the compounds according to the invention on the condition of the thymus of the rats was also investigated: a control group, an experimental group of morphinized animals and an experimental group of animals were first morphinized and then injected with the compounds according to the invention. The experiment was carried out similarly to that described above.

Compound: Nc1cccc2c(=O)[nH][nH]c(=O)c12.[Na] [Compound 15, sodium salt of 5-amino-benzo[d]-3H-pyridazine-1,4-dione]
- bond with the erythrocytes: dependence on incubation temperature [1]: does not depend on the temperature
- T, s After 120 minutes (prothrombin time) ([2]; dose 15.0 mg/kg intravenously): 11.5 ± 0.2 s
- T, s after 15 minutes (prothrombin time) ([2]; dose 15.0 mg/kg intravenously): 11.5 ± 0.2 s
- T, s after 30 minutes (prothrombin time) ([2]; dose 15.0 mg/kg intravenously): 11.7 ± 0.2 s
- T, s after 60 minutes (prothrombin time) ([2]; dose 15.0 mg/kg intravenously): 11.2 ± 0.2 s
- T, s After 120 minutes (prothrombin time) ([2]; dose 30.0 mg/kg intravenously): 11.3 ± 0.2 s
- T, s after 15 minutes (prothrombin time) ([2]; dose 30.0 mg/kg intravenously): 11.0 ± 0.2 s
- T, s after 30 minutes (prothrombin time) ([2]; dose 30.0 mg/kg intravenously): 11.2 ± 0.2 s
- T, s after 60 minutes (prothrombin time) ([2]; dose 30.0 mg/kg intravenously): 11.4 ± 0.2 s
- T, s After 120 minutes (prothrombin time) ([2]; dose 60.0 mg/kg intravenously): 12.0 ± 0.1 s
- T, s after 15 minutes (prothrombin time) ([2]; dose 60.0 mg/kg intravenously): 12.0 ± 0.1 s
- T, s after 30 minutes (prothrombin time) ([2]; dose 60.0 mg/kg intravenously): 12.0 ± 0.1 s
- T, s after 60 minutes (prothrombin time) ([2]; dose 60.0 mg/kg intravenously): 12.0 ± 0.2 s
- effect on the prothrombin time index (overall) ([2]; doses of 15.0, 30.0, 60.0 mg/kg): have no effect on the prothrombin time index
- A, % after 15 minutes (coagulating activity) ([3]; dose 15.0 mg/kg intravenously): 82.3%
- A, % after 30 minutes (coagulating activity) ([3]; dose 15.0 mg/kg intravenously): 103.0%
- A, % after 60 minutes (coagulating activity) ([3]; dose 15.0 mg/kg intravenously): 89.0%
- A, % after 120 minutes (coagulating activity) ([3]; dose 15.0 mg/kg intravenously): 101.2%
- A, % after 15 minutes (coagulating activity) ([3]; dose 30.0 mg/kg intravenously): 100.3%
- A, % after 30 minutes (coagulating activity) ([3]; dose 30.0 mg/kg intravenously): 68.4%
- A, % after 60 minutes (coagulating activity) ([3]; dose 30.0 mg/kg intravenously): 106.6%
- A, % after 120 minutes (coagulating activity) ([3]; dose 30.0 mg/kg intravenously): 70.6%
- A, % after 15 minutes (coagulating activity) ([3]; dose 60.0 mg/kg intravenously): 74.4%
- A, % after 30 minutes (coagulating activity) ([3]; dose 60.0 mg/kg intravenously): 63.2%
- A, % after 60 minutes (coagulating activity) ([3]; dose 60.0 mg/kg intravenously): 64.4%
- A, % after 120 minutes (coagulating activity) ([3]; dose 60.0 mg/kg intravenously): 66.5%
- effect on the coagulation activity, autocoagulation test (overall) ([3]; doses 15.0, 30.0, 60.0 mg/kg): have no effect on the coagulation activity
- Nitrites, thymus Supernatant, Administration of morphine and compound [4]: 0.383 ± 0.02 nmol/mg of protein
- Thymus mass, Administration of morphine and compound [4]: 214 ± 12 mg

Reference: patent US20070166547A1, “Use of a layer consisting of hydrophobic linear, or two-dimensional polycyclic aromatics as a barrier layer or an encapsulation and electric components constructed with a layer of this type and comprising organic polymers” (priority 2003, published 2007)
